Test results taken from PubChem BioAssay AID1963832 (Molecular Pharmacology Branch, DTP, NCI, 2024).

Tested on: 885724-159-R-J1-PDC complex spheroid viability
Assay: Anticancer human tumor 885724-159-R-J1-PDC patient-derived pancreatic adenocarcinoma cell line growth inhibition [POLQ]
Details: for IC50: curve of first compound; for viability, T/C: stronger effect = lower value
Procedure, shortened: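 Three-cell-type spheroids modelling solid tumor plus stroma served as the readout system; POL inhibitors were tested individually and in combination, concentration ranges set by clinical Cmax where known.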

[1] = second compound 0.0316 µM, first compound 0.0316 µM
[2] = second compound 0.0316 µM, first compound 0.1 µM
[3] = second compound 0.0316 µM, first compound 0.316 µM
[4] = second compound 0.0316 µM, first compound 1 µM
[5] = second compound 0.1 µM, first compound 0.0316 µM
[6] = second compound 0.1 µM, first compound 0.1 µM
[7] = second compound 0.1 µM, first compound 0.316 µM
[8] = second compound 0.1 µM, first compound 1 µM
[9] = second compound 0.316 µM, first compound 0.0316 µM
[10] = second compound 0.316 µM, first compound 0.1 µM
[11] = second compound 0.316 µM, first compound 0.316 µM
[12] = second compound 0.316 µM, first compound 1 µM
[13] = second compound 1 µM, first compound 0.0316 µM
[14] = second compound 1 µM, first compound 0.1 µM
[15] = second compound 1 µM, first compound 0.316 µM
[16] = second compound 1 µM, first compound 1 µM
[17] = second compound 3.16 µM, first compound 0.0316 µM
[18] = second compound 3.16 µM, first compound 0.1 µM
[19] = second compound 3.16 µM, first compound 0.316 µM
[20] = second compound 3.16 µM, first compound 1 µM
[21] = second compound 10 µM, first compound 0.0316 µM
[22] = second compound 10 µM, first compound 0.1 µM
[23] = second compound 10 µM, first compound 0.316 µM
[24] = second compound 10 µM, first compound 1 µM
[25] = second compound 0.0316 µM, first compound 3.16 µM
[26] = second compound 0.0316 µM, first compound 10 µM
[27] = second compound 0.1 µM, first compound 3.16 µM
[28] = second compound 0.1 µM, first compound 10 µM
[29] = second compound 0.316 µM, first compound 3.16 µM
[30] = second compound 0.316 µM, first compound 10 µM
[31] = second compound 1 µM, first compound 3.16 µM
[32] = second compound 1 µM, first compound 10 µM
[33] = second compound 3.16 µM, first compound 3.16 µM
[34] = second compound 3.16 µM, first compound 10 µM
[35] = second compound 10 µM, first compound 3.16 µM
[36] = second compound 10 µM, first compound 10 µM
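Note: spheroids exposed to compounds for 7 days.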

## CCc1c2c(nc3ccc(O)cc13)-c1cc3c(c(=O)n1C2)COC(=O)[C@]3(O)CC + Nc1ccc(C#CCN(C(=O)Cc2ncc(C(F)(F)F)cc2C(F)(F)F)c2ccc(F)cc2)nn1
Second compound 0.0316 µM
  IC50: 91.9 nM
Second compound 0.1 µM
  IC50: 55.9 nM
Second compound 0.316 µM
  IC50: 45.8 nM
Second compound 1 µM
  IC50: 81.8 nM
Second compound 3.16 µM
  IC50: 59 nM
Second compound 10 µM
  IC50: 120 nM
Second compound 0.0316 µM, first compound 0.00316 µM
  viability, T/C: 73.5%
Second compound 0.0316 µM, first compound 0.01 µM
  viability, T/C: 60.1%
[1]
  viability, T/C: 58%
[2]
  viability, T/C: 51.4%
[3]
  viability, T/C: 33.5%
[4]
  viability, T/C: 5.95%
Second compound 0.1 µM, first compound 0.00316 µM
  viability, T/C: 82.2%
Second compound 0.1 µM, first compound 0.01 µM
  viability, T/C: 63.5%
[5]
  viability, T/C: 52.3%
[6]
  viability, T/C: 48.1%
[7]
  viability, T/C: 33.2%
[8]
  viability, T/C: 6.65%
Second compound 0.316 µM, first compound 0.00316 µM
  viability, T/C: 83.1%
Second compound 0.316 µM, first compound 0.01 µM
  viability, T/C: 63.6%
[9]
  viability, T/C: 48.1%
[10]
  viability, T/C: 46.1%
[11]
  viability, T/C: 32.7%
[12]
  viability, T/C: 6.56%
Second compound 1 µM, first compound 0.00316 µM
  viability, T/C: 76.3%
Second compound 1 µM, first compound 0.01 µM
  viability, T/C: 63%
[13]
  viability, T/C: 49%
[14]
  viability, T/C: 51.4%
[15]
  viability, T/C: 37.7%
[16]
  viability, T/C: 5.34%
Second compound 3.16 µM, first compound 0.00316 µM
  viability, T/C: 78.8%
Second compound 3.16 µM, first compound 0.01 µM
  viability, T/C: 65.1%
[17]
  viability, T/C: 51.4%
[18]
  viability, T/C: 47.2%
[19]
  viability, T/C: 34.6%
[20]
  viability, T/C: 5.06%
Second compound 10 µM, first compound 0.00316 µM
  viability, T/C: 72.8%
Second compound 10 µM, first compound 0.01 µM
  viability, T/C: 58.6%
[21]
  viability, T/C: 53.6%
[22]
  viability, T/C: 55.1%
[23]
  viability, T/C: 39.3%
[24]
  viability, T/C: 5.13%

## COc1cc(C2c3cc4c(cc3C(OC3OC5COC(C)OC5C(O)C3O)C3COC(=O)C23)OCO4)cc(OC)c1O (stereo unspecified) + Nc1ccc(C#CCN(C(=O)Cc2ncc(C(F)(F)F)cc2C(F)(F)F)c2ccc(F)cc2)nn1
Second compound 0.0316 µM
  IC50: > 10000 nM
Second compound 0.1 µM
  IC50: > 10000 nM
Second compound 0.316 µM
  IC50: > 10000 nM
Second compound 1 µM
  IC50: > 10000 nM
Second compound 3.16 µM
  IC50: > 10000 nM
Second compound 10 µM
  IC50: > 10000 nM
[1]
  viability, T/C: 107%
[2]
  viability, T/C: 86.6%
[3]
  viability, T/C: 87.4%
[4]
  viability, T/C: 71%
[25]
  viability, T/C: 57.8%
[26]
  viability, T/C: 55%
[5]
  viability, T/C: 104%
[6]
  viability, T/C: 89.4%
[7]
  viability, T/C: 82.2%
[8]
  viability, T/C: 69.4%
[27]
  viability, T/C: 61.1%
[28]
  viability, T/C: 53.2%
[9]
  viability, T/C: 103%
[10]
  viability, T/C: 87.2%
[11]
  viability, T/C: 76.1%
[12]
  viability, T/C: 66.3%
[29]
  viability, T/C: 58.2%
[30]
  viability, T/C: 50.6%
[13]
  viability, T/C: 89.7%
[14]
  viability, T/C: 85.7%
[15]
  viability, T/C: 76.9%
[16]
  viability, T/C: 69.6%
[31]
  viability, T/C: 53.9%
[32]
  viability, T/C: 53.5%
[17]
  viability, T/C: 87.8%
[18]
  viability, T/C: 87.9%
[19]
  viability, T/C: 82.6%
[20]
  viability, T/C: 81%
[33]
  viability, T/C: 56.1%
[34]
  viability, T/C: 50.9%
[21]
  viability, T/C: 95.1%
[22]
  viability, T/C: 94.3%
[23]
  viability, T/C: 82.4%
[24]
  viability, T/C: 74.1%
[35]
  viability, T/C: 62.8%
[36]
  viability, T/C: 52.4%

## Nc1ccn(C2OC(CO)C(O)C2(F)F)c(=O)n1 (stereo unspecified) + Nc1ccc(C#CCN(C(=O)Cc2ncc(C(F)(F)F)cc2C(F)(F)F)c2ccc(F)cc2)nn1
Second compound 0.0316 µM
  IC50: 1040 nM
Second compound 0.1 µM
  IC50: 1880 nM
Second compound 0.316 µM
  IC50: 2270 nM
Second compound 1 µM
  IC50: 886 nM
Second compound 3.16 µM
  IC50: > 10000 nM
Second compound 10 µM
  IC50: > 10000 nM
[1]
  viability, T/C: 65.5%
[2]
  viability, T/C: 57.2%
[3]
  viability, T/C: 47%
[4]
  viability, T/C: 55.1%
[25]
  viability, T/C: 54.8%
[26]
  viability, T/C: 42.1%
[5]
  viability, T/C: 70.2%
[6]
  viability, T/C: 60.2%
[7]
  viability, T/C: 54.3%
[8]
  viability, T/C: 55.2%
[27]
  viability, T/C: 49.6%
[28]
  viability, T/C: 44.2%
[9]
  viability, T/C: 72%
[10]
  viability, T/C: 62.9%
[11]
  viability, T/C: 56.5%
[12]
  viability, T/C: 53.2%
[29]
  viability, T/C: 49.1%
[30]
  viability, T/C: 46.3%
[13]
  viability, T/C: 72.4%
[14]
  viability, T/C: 55.4%
[15]
  viability, T/C: 54.2%
[16]
  viability, T/C: 51.2%
[31]
  viability, T/C: 49%
[32]
  viability, T/C: 47.1%
[17]
  viability, T/C: 77.5%
[18]
  viability, T/C: 60.9%
[19]
  viability, T/C: 55.7%
[20]
  viability, T/C: 50.8%
[33]
  viability, T/C: 55.8%
[34]
  viability, T/C: 46.4%
[21]
  viability, T/C: 96%
[22]
  viability, T/C: 72%
[23]
  viability, T/C: 69.3%
[24]
  viability, T/C: 59.2%
[35]
  viability, T/C: 54.9%
[36]
  viability, T/C: 55.2%
